Assay results: patent US9533965B2, “2-arylbenzofuran-7-formamide compounds, preparation method and use thereof” (SHANGHAI INSTITUTE OF MATERIA MEDICA, CHINESE ACADEMY OF …, priority 2012, dated 2017)
Several values for one entry are separate records, joined by “and”; a condition that tells them apart may be missing. Identical values can stand only once. Like-named read-outs stand apart in the source and are kept apart here.

Experiments:
PARP3 = biological target: T1, PARP3 (Homo sapiens, UniProt Q9Y6F1); experiment: Enzymatic inhibition on the PARP family members (ELISA), PARP3; format: biochemical; settings: PARP family panel
T1 sequence (Q9Y6F1 1-533): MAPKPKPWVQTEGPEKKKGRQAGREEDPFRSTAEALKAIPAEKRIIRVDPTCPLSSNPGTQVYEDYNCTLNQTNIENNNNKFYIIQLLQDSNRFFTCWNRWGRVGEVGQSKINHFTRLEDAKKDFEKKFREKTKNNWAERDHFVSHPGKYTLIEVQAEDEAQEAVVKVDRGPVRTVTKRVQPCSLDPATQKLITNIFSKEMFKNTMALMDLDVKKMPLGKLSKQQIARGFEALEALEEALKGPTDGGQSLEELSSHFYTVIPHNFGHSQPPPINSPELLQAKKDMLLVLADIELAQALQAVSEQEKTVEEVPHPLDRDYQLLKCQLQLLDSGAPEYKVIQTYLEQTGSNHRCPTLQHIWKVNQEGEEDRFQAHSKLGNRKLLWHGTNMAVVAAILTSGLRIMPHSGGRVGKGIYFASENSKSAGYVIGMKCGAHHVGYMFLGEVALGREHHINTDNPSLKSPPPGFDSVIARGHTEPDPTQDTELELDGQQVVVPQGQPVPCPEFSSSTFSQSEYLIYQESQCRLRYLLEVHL

TNKS1 = biological target: T2, TNKS1 (Homo sapiens, UniProt O95271); experiment: Enzymatic inhibition on the PARP family members (ELISA), TNKS1; format: biochemical; settings: PARP family panel, 30° C.
T2 sequence (O95271 1-1327): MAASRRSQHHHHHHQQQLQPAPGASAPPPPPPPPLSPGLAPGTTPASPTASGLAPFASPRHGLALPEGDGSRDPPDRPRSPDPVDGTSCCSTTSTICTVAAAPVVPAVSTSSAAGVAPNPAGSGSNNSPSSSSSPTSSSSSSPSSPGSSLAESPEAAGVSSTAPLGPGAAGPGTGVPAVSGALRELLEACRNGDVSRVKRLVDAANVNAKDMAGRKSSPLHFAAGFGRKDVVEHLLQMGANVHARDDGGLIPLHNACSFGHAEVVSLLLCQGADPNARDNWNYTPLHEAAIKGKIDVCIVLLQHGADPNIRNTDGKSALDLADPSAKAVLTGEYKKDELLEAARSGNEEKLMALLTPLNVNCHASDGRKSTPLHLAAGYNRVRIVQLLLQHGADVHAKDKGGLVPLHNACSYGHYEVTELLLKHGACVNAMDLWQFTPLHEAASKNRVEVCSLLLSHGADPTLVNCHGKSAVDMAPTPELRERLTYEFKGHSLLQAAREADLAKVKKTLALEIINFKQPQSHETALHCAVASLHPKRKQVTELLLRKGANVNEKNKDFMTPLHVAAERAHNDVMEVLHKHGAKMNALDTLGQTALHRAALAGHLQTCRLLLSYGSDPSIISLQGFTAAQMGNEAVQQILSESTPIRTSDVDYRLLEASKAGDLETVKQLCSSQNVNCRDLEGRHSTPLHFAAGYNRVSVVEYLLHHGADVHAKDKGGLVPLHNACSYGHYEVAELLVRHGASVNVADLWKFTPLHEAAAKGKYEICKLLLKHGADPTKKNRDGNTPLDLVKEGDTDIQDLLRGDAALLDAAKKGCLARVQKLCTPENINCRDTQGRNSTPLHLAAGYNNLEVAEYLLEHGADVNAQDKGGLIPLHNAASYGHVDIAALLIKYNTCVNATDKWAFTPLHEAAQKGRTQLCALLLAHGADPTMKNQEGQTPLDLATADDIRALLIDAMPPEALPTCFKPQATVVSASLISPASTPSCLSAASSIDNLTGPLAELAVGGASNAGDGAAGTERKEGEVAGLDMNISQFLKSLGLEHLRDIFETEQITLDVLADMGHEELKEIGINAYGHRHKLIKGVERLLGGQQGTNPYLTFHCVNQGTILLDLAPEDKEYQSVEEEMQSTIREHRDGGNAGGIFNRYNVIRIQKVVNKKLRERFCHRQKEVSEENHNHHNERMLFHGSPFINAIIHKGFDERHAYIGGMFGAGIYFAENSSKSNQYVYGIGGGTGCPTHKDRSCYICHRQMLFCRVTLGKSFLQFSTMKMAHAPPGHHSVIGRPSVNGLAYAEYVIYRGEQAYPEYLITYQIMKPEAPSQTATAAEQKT

PARP1 = PARP1 (Homo sapiens, UniProt P09874); experiment: PARP1 enzymatic inhibition at molecular levels (ELISA); settings: ELISA IC50, PARP1 enzyme, molecular level
Sequence of PARP1 (P09874 whole entry): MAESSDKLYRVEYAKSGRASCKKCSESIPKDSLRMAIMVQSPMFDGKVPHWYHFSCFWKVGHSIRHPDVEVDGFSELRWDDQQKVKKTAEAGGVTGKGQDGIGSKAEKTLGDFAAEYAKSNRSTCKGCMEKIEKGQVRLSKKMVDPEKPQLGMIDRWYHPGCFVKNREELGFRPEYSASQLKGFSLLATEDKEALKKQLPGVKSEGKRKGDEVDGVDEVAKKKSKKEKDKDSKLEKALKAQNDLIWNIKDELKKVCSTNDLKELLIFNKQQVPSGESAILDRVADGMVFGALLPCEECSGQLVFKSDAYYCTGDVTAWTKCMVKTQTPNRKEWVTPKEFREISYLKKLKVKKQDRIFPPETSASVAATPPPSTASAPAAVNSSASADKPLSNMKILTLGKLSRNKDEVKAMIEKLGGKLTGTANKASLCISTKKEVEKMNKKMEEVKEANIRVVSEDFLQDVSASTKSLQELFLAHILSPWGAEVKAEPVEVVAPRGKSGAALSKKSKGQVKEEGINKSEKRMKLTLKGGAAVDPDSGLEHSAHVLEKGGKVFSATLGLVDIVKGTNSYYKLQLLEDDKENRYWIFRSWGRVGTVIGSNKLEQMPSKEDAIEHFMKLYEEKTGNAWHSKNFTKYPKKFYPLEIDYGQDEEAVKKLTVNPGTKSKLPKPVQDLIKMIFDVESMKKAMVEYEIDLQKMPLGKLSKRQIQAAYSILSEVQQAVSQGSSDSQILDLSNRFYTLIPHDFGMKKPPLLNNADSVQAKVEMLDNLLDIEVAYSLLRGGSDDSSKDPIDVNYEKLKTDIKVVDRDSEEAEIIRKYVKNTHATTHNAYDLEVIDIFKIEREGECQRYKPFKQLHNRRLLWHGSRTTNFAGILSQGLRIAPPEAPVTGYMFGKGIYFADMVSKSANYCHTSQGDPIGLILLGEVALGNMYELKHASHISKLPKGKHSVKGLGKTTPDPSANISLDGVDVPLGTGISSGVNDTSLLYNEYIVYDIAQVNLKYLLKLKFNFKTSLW

[1] = Preliminary pharmacokinetic experiment in rats by gavage; format: in vivo, SD rats; settings: 10 mg/kg by gavage
Method: Healthy SD rats (supplied by Shanghai Sippr-BK Lab. Animal Co. Ltd, the Production License Number for the experimental animals: SCXK (hu), 200-220 g of weight, male) were divided into groups randomly and administrated by gavage, respectively. The compound was dissolved in normal saline.
The rats fasted for 12 h and could drink water ad libitum before experiment. 2 h after dosing, the rats were provided with food all together.
The time point for collecting blood samples and the sample processing are listed as follows.
Intragastric administration: 0.25, 0.5, 1.0, 2.0, 3.0, 5.0, 7.0, 9.0 and 24 h after administration: 0.3 mL venous blood was taken from retrobulbar venous plexus of the rat and loaded into heparinization tubes. After being centrifuged at 11000 rpm for 5 min, the plasma was separated and frozen at −20° C. in a refrigerator.

[2] = system: Chinese hamster lung fibroblast cell line VC8 (BRCA2−/−); experiment: In vitro cell proliferation inhibition (MTT), VC8 cells; format: cell-based; settings: Cricetulus griseus, V-C8, 72 h, MTT, 72 h, VC8 (BRCA2−/−); read-out: VC8 cell IC50
PARP2 = PARP2 (Homo sapiens, UniProt Q9UGN5); experiment: Enzymatic inhibition on the PARP family members (ELISA), PARP2; format: biochemical; settings: PARP family panel
Sequence of PARP2 (Q9UGN5 whole entry): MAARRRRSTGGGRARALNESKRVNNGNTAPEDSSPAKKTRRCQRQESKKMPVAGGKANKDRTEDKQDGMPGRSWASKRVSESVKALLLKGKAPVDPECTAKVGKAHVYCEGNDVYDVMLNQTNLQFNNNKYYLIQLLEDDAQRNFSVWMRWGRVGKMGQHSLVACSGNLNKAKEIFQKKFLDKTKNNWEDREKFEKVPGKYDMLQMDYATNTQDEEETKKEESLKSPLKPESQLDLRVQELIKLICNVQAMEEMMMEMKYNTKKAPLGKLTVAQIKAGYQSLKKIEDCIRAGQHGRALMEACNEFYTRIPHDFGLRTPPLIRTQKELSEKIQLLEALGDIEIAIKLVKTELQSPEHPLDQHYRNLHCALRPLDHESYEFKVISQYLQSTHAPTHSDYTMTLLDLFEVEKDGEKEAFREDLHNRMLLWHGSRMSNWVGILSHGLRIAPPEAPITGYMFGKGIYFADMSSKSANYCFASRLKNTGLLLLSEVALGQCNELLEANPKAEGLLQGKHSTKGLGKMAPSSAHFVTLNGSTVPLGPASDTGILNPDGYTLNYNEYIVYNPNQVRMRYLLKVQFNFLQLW

wild type cell line V79 = experiment: In vitro cell proliferation inhibition (MTT), V79 cells; format: cell-based, Chinese hamster; settings: Cricetulus griseus; MTT, 72 h, wild type V79; read-out: V79 cell IC50

IC50 (PARP3): > 10 µM | IC50 (TNKS1): 1.6 µM | IC50 (PARP1): 0.0448 ± 0.0125 µM | eliminate rate in vivo [1]: moderate | MRT ([1]; 10 mg/kg): 3.82 h and 3.34 h and 5.57 h and 3.04 h | AUC0-∞ ([1]; 10 mg/kg, mean): 471 ng·h/mL | bioavailability ([1]; male, Sprague-Dawley (SD), rat, plasma, po, read-out: F (absolute bioavailability)): 58.9% | AUC(0-inf) ([1]; male, Sprague-Dawley (SD), rat, plasma, po, 10 mg/kg): 404 ng·h/mL | AUC0-t ([1]; male, Sprague-Dawley (SD), rat, plasma, po, 10 mg/kg, read-out: AUC0-t): 452 ± 103 ng·h/mL | MRT ([1]; male, Sprague-Dawley (SD), rat, plasma, po, 10 mg/kg, read-out: MRT): 3.94 ± 1.13 h | IC50 (PARP2): 0.0019 µM
SMILES: CNCc1ccc(-c2cc3cc(F)cc(C(N)=O)c3o2)cc1 [compound 5b, 5-fluoro-2-{4-[(methylamino)methyl]phenyl}benzofuran-7-carboxamide]
AUC0-t ([1]; 10 mg/kg): 394 ng·h/mL and 587 ng·h/mL and 352 ng·h/mL and 474 ng·h/mL | AUC0-∞ ([1]; 10 mg/kg): 595 ng·h/mL and 407 ng·h/mL and 478 ng·h/mL | IC50 [2]: 0.59 ± 0.15 µM | IC50 (wild type cell line V79): > 10 µM
